{
  "source": "patent US20030157040A1",
  "about": "“Use of ectoine or ectoine derivatives in cosmetic formulations” (Merck Patent GmbH, priority 1998, published 2003)",
  "tested_on": "organotypical skin equivalents (Skinethic)",
  "assay": "UV-induced formation of \"sunburn cells\" in organotypical skin equivalents",
  "type": "cell-based",
  "conditions": "for Number of counted \"sunburn cells\" in individual sections of the UV-irradiated skin equivalents / Number of counted \"sunburn cells\", mean M of six sections: pretreatment 24 h with ectoin 4%; for Number of counted \"sunburn cells\" in individual sections of the UV-irradiated skin equivalents: individual section",
  "experimental": "An investigation is carried-out to determine whether ectoin has an inhibiting action on the UV-induced formation of “sunburn cells” in organotypical skin equivalents.\nThe investigations are carried out in accordance with the method described in A. R. Young, ‘The sunburn cell’, Photodermatology 4 (1987) 127-134. The cells used are organotypical skin models. Skinethic® skin equivalents from Skinethic, Nice, France (Lot. No. PK 2 DT 07 99 022A 0603) are used. Ectoin is weighed in directly prior to the start of the test and dissolved in the use concentration of 4% in EBSS (Gibco BRL; Order No. 15015 044). The organotypical skin equivalents (Skinethic) are, depending on the treatment group, incubated for 24 hours with or without ectoin (4%) at 37° C. and 5% CO2. The two treatment groups are then subjected to UV irradiation (0, 30, 60, 100, 200, 300 mJ/cm^2 of UVB) using a sun simulator (SOL 500, Dr. Hönle). Following incubation for a further 24 hours at 37° C. and 5% CO2, all skin equivalents are prepared histologically and investigated for induced “sunburn cells”.",
  "note": "“And” between values parts separate entries of the source, which are not always exact repeats. Equal values may be shown once. “Also recorded” adds a separate entry of the source.",
  "data": [
    {"smiles": "CC1=N[C@H](C(=O)O)CCN1", "note": "[ectoin, (S)-1,4,5,6-tetrahydro-2-methyl-4-pyrimidine-carboxylic acid]", "values": [
      {"measurement": "Number of counted \"sunburn cells\" in individual sections of the UV-irradiated skin equivalents", "setting": "irradiation 0 mJ/cm^2 UVB", "result": 0},
      {"measurement": "Number of counted \"sunburn cells\", mean M of six sections", "setting": "irradiation 0 mJ/cm^2 UVB, mean of six sections", "result": 0.00},
      {"measurement": "Number of counted \"sunburn cells\" in individual sections of the UV-irradiated skin equivalents", "setting": "irradiation 30 mJ/cm^2 UVB", "result": "1 (2×) and 2 (2×) and 3 and 0"},
      {"measurement": "Number of counted \"sunburn cells\", mean M of six sections", "setting": "irradiation 30 mJ/cm^2 UVB, mean of six sections", "result": 1.50},
      {"measurement": "Number of counted \"sunburn cells\" in individual sections of the UV-irradiated skin equivalents", "setting": "irradiation 60 mJ/cm^2 UVB", "result": "2 (2×) and 4 and 3 (3×)"},
      {"measurement": "Number of counted \"sunburn cells\", mean M of six sections", "setting": "irradiation 60 mJ/cm^2 UVB, mean of six sections (per section)", "result": "2.83±0.75 and 2.83"},
      {"measurement": "Number of counted \"sunburn cells\" in individual sections of the UV-irradiated skin equivalents", "setting": "irradiation 100 mJ/cm^2 UVB", "result": "9 (2×) and 10 (2×) and 8 (2×)"},
      {"measurement": "Number of counted \"sunburn cells\", mean M of six sections", "setting": "irradiation 100 mJ/cm^2 UVB, mean of six sections (per section)", "result": "9±0.89 and 9.00"},
      {"measurement": "Number of counted \"sunburn cells\" in individual sections of the UV-irradiated skin equivalents", "setting": "irradiation 200 mJ/cm^2 UVB", "result": "39 (2×) and 32 (2×) and 35 and 34"},
      {"measurement": "Number of counted \"sunburn cells\", mean M of six sections", "setting": "irradiation 200 mJ/cm^2 UVB, mean of six sections (per section)", "result": "35.17±3.19 and 35.17"},
      {"measurement": "Number of counted \"sunburn cells\" in individual sections of the UV-irradiated skin equivalents", "setting": "irradiation 300 mJ/cm^2 UVB", "result": ">100 (5×) and <100"},
      {"measurement": "Number of counted \"sunburn cells\", mean M of six sections", "setting": "irradiation 300 mJ/cm^2 UVB, mean of six sections", "result": ">100"},
      {"measurement": "dose-effect relationship between the rate of formation of SBCs and the administered UV dose", "setting": "pretreatment with ectoin versus no pretreatment, 0-300 mJ/cm^2 UVB", "result": "shifted significantly to higher UV dose ranges; also recorded: significantly into higher UV dose ranges"}
    ]}
  ]
}
